Assay results as given in patent US10954269B2, “Anti-inflammatory tripeptides” (Dr. August Wolff Gmbh & Co. KG Arzneimittel, priority 2013, dated 2021).

Experiments:
primary human T-cells = assay: Cytokine secretion on protein level in activated primary human T-cells (13-plex FACS / Luminex, supernatant); type: cell-based; details: for IL-1 cytokine concentration / IL-2 cytokine concentration / IL-4 cytokine concentration / IL-5 cytokine concentration / IL-6 cytokine concentration / IL-9 cytokine concentration / IL-10 cytokine concentration / IL-12p70 cytokine concentration / IL-13 cytokine concentration / IL-17 cytokine concentration / IL-22 cytokine concentration / TNF-α cytokine concentration / INF-α cytokine concentration: substance 10^−9M
Summary of the method: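 First, T-cells are isolated from healthy donors' blood. Next, they and HaCaT keratinocytes are activated for 48 h with PMA/Ionomycin or IFN-γ in the presence of tripeptides. Finally, secreted cytokines are quantified in supernatants by 13-plex FACS at 48 and 72 h.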

primary murine T-cells = assay: Cytokine secretion on protein level in activated primary murine T-cells (13-plex FACS / Luminex, supernatant); type: cell-based, C57BL/6 mice; details: for IL-1 cytokine concentration / IL-2 cytokine concentration / IL-4 cytokine concentration / IL-5 cytokine concentration / IL-6 cytokine concentration / IL-10 cytokine concentration / IL-13 cytokine concentration / IL-17 cytokine concentration / IL-21 cytokine concentration / IL-22 cytokine concentration / IL-27 cytokine concentration / TNF-α cytokine concentration / IFN-γ cytokine concentration: substance 10^−9M
Summary of the method: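 T-cells from secondary lymphatic organs of naïve C57BL/6 mice, stimulated with PMA/Ionomycin or IFN-γ; supernatant cytokines measured by 13-plex FACS 48 h and 72 h after stimulation. In another run, PMA/Ionomycin-stimulated cells received compounds at 10^−7, 10^−9 and 10^−11 M, with IFN-γ, IL-17 and IL-10 measured by Luminex.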

[1] = test system: human keratinocyte cell line (HaCaT); assay: Cytokine secretion on protein level in activated human keratinocyte cell line HaCaT (13-plex FACS / Luminex, supernatant); type: cell-based; details: substance 10^−9M
Summary of the method: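 Cytokine protein in supernatant is read by multiplex FACS or Luminex. Tripeptide-treated HaCaT cells or blood-derived human T-cells are stimulated beforehand with PMA/Ionomycin or IFN-γ. The most relevant analytes are IL-1, IL-2, IL-6, IL-12p70, IL-17, IFN-γ and TNF-α, sampled 48 h and 72 h after stimulation.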

[2] = primary human T-cells stimulated with IFN-γ
[3] = primary human T-cells stimulated with PBS
[4] = primary human T-cells stimulated with PMA/Ionomycin
[5] = primary murine T-cells stimulated with IFN-γ
[6] = primary murine T-cells stimulated with PBS
[7] = primary murine T-cells stimulated with PMA/Ionomycin
[8] = HaCaT stimulated with PMA/Ionomycin

N^α,N^α-dimethyl-(L)-Phe-(D)-Pro-N^α-methyl-(L)-Thr-OH [Example 7]
secretion / expression of pro-inflammatory cytokines (supernatant) (primary human T-cells; activated primary human T-cells): immunomodulatory effects were seen | IL-1 cytokine concentration (primary human T-cells; [2]): 0 pg/mL | IL-2 cytokine concentration (primary human T-cells; [2]): 0 pg/mL | IL-4 cytokine concentration (primary human T-cells; [2]): 83.34 pg/mL | IL-5 cytokine concentration (primary human T-cells; [2]): 0 pg/mL | IL-6 cytokine concentration (primary human T-cells; [2]): 56.38 pg/mL | IL-9 cytokine concentration (primary human T-cells; [2]): 0 pg/mL | IL-10 cytokine concentration (primary human T-cells; [2]): 69.21 pg/mL | IL-12p70 cytokine concentration (primary human T-cells; [2]): 0 pg/mL | IL-13 cytokine concentration (primary human T-cells; [2]): 59.7 pg/mL | IL-17 cytokine concentration (primary human T-cells; [2]): 0 pg/mL | IL-22 cytokine concentration (primary human T-cells; [2]): 0 pg/mL | TNF-α cytokine concentration (primary human T-cells; [2]): 0 pg/mL | IL-1 cytokine concentration (primary human T-cells; [3]): 154.31 pg/mL | IL-2 cytokine concentration (primary human T-cells; [3]): 126.59 pg/mL | IL-4 cytokine concentration (primary human T-cells; [3]): 0 pg/mL | IL-5 cytokine concentration (primary human T-cells; [3]): 8.58 pg/mL | IL-6 cytokine concentration (primary human T-cells; [3]): 122.64 pg/mL | IL-9 cytokine concentration (primary human T-cells; [3]): 13.42 pg/mL | IL-10 cytokine concentration (primary human T-cells; [3]): 121.25 pg/mL | IL-12p70 cytokine concentration (primary human T-cells; [3]): 0 pg/mL | IL-13 cytokine concentration (primary human T-cells; [3]): 0 pg/mL | IL-17 cytokine concentration (primary human T-cells; [3]): 95.69 pg/mL | IL-22 cytokine concentration (primary human T-cells; [3]): 0 pg/mL | INF-α cytokine concentration (primary human T-cells; [3]): 69.17 pg/mL | TNF-α cytokine concentration (primary human T-cells; [3]): 51.46 pg/mL | IL-1 cytokine concentration (primary human T-cells; [4]): 508.96 pg/mL | IL-2 cytokine concentration (primary human T-cells; [4]): 1650.58 pg/mL | IL-4 cytokine concentration (primary human T-cells; [4]): 72.07 pg/mL | IL-5 cytokine concentration (primary human T-cells; [4]): 357.88 pg/mL | IL-6 cytokine concentration (primary human T-cells; [4]): 1100.07 pg/mL | IL-9 cytokine concentration (primary human T-cells; [4]): 263.36 pg/mL | IL-10 cytokine concentration (primary human T-cells; [4]): 842.93 pg/mL | IL-12p70 cytokine concentration (primary human T-cells; [4]): 0 pg/mL | IL-13 cytokine concentration (primary human T-cells; [4]): 991.61 pg/mL | IL-17 cytokine concentration (primary human T-cells; [4]): 2611.96 pg/mL | IL-22 cytokine concentration (primary human T-cells; [4]): 0 pg/mL | INF-α cytokine concentration (primary human T-cells; [4]): 6989.26 pg/mL | TNF-α cytokine concentration (primary human T-cells; [4]): 2062.57 pg/mL | secretion / expression of pro-inflammatory cytokines (supernatant) (primary murine T-cells; activated primary murine T-cells): immunomodulatory effects were seen | IL-1 cytokine concentration (primary murine T-cells; [5]): 88.23 pg/mL | IL-2 cytokine concentration (primary murine T-cells; [5]): 98.22 pg/mL | IL-4 cytokine concentration (primary murine T-cells; [5]): 40.87 pg/mL | IL-5 cytokine concentration (primary murine T-cells; [5]): 265.4 pg/mL | IL-6 cytokine concentration (primary murine T-cells; [5]): 123.98 pg/mL | IL-10 cytokine concentration (primary murine T-cells; [5]): 1199.53 pg/mL | IL-13 cytokine concentration (primary murine T-cells; [5]): 0 pg/mL | IL-17 cytokine concentration (primary murine T-cells; [5]): 84.26 pg/mL | IL-21 cytokine concentration (primary murine T-cells; [5]): 0 pg/mL | IL-22 cytokine concentration (primary murine T-cells; [5]): 50.37 pg/mL | IL-27 cytokine concentration (primary murine T-cells; [5]): 0 pg/mL | TNF-α cytokine concentration (primary murine T-cells; [5]): 25.58 pg/mL | IFN-γ cytokine concentration (primary murine T-cells; [6]): 0 pg/mL | IL-1 cytokine concentration (primary murine T-cells; [6]): 62.38 pg/mL | IL-2 cytokine concentration (primary murine T-cells; [6]): 137.05 pg/mL | IL-4 cytokine concentration (primary murine T-cells; [6]): 60.56 pg/mL | IL-5 cytokine concentration (primary murine T-cells; [6]): 317.47 pg/mL | IL-6 cytokine concentration (primary murine T-cells; [6]): 129.26 pg/mL | IL-10 cytokine concentration (primary murine T-cells; [6]): 1283.71 pg/mL | IL-13 cytokine concentration (primary murine T-cells; [6]): 0 pg/mL | IL-17 cytokine concentration (primary murine T-cells; [6]): 0 pg/mL | IL-21 cytokine concentration (primary murine T-cells; [6]): 0 pg/mL | IL-22 cytokine concentration (primary murine T-cells; [6]): 15.86 pg/mL | IL-27 cytokine concentration (primary murine T-cells; [6]): 61.43 pg/mL | TNF-α cytokine concentration (primary murine T-cells; [6]): 53.67 pg/mL | IFN-γ cytokine concentration (primary murine T-cells; [7]): 1916.21 pg/mL | IL-1 cytokine concentration (primary murine T-cells; [7]): 154.26 pg/mL | IL-2 cytokine concentration (primary murine T-cells; [7]): 99.71 pg/mL | IL-4 cytokine concentration (primary murine T-cells; [7]): 99.12 pg/mL | IL-5 cytokine concentration (primary murine T-cells; [7]): 246.42 pg/mL | IL-6 cytokine concentration (primary murine T-cells; [7]): 184.98 pg/mL | IL-10 cytokine concentration (primary murine T-cells; [7]): 1233.22 pg/mL | IL-13 cytokine concentration (primary murine T-cells; [7]): 0 pg/mL | IL-17 cytokine concentration (primary murine T-cells; [7]): 67.92 pg/mL | IL-21 cytokine concentration (primary murine T-cells; [7]): 0 pg/mL | IL-22 cytokine concentration (primary murine T-cells; [7]): 71.09 pg/mL | IL-27 cytokine concentration (primary murine T-cells; [7]): 90.15 pg/mL | TNF-α cytokine concentration (primary murine T-cells; [7]): 40.87 pg/mL | IL-1 cytokine concentration ([1]; HaCaT stimulated with IFN-γ): 109.65 pg/mL | IL-2 cytokine concentration ([1]; HaCaT stimulated with IFN-γ): 267.78 pg/mL | IL-4 cytokine concentration ([1]; HaCaT stimulated with IFN-γ): 0 pg/mL | IL-5 cytokine concentration ([1]; HaCaT stimulated with IFN-γ): 0 pg/mL | IL-6 cytokine concentration ([1]; HaCaT stimulated with IFN-γ): 470.44 pg/mL | IL-9 cytokine concentration ([1]; HaCaT stimulated with IFN-γ): 14.88 pg/mL | IL-10 cytokine concentration ([1]; HaCaT stimulated with IFN-γ): 0 pg/mL | IL-12p70 cytokine concentration ([1]; HaCaT stimulated with IFN-γ): 0 pg/mL | IL-13 cytokine concentration ([1]; HaCaT stimulated with IFN-γ): 1843.69 pg/mL | IL-17 cytokine concentration ([1]; HaCaT stimulated with IFN-γ): 202.45 pg/mL | IL-22 cytokine concentration ([1]; HaCaT stimulated with IFN-γ): 0 pg/mL | TNF-α cytokine concentration ([1]; HaCaT stimulated with IFN-γ): 0 pg/mL | IFN-γ cytokine concentration ([1]; HaCaT stimulated with PBS): 0 pg/mL | IL-1 cytokine concentration ([1]; HaCaT stimulated with PBS): 181.03 pg/mL | IL-2 cytokine concentration ([1]; HaCaT stimulated with PBS): 180.91 pg/mL | IL-4 cytokine concentration ([1]; HaCaT stimulated with PBS): 0 pg/mL | IL-5 cytokine concentration ([1]; HaCaT stimulated with PBS): 113.28 pg/mL | IL-6 cytokine concentration ([1]; HaCaT stimulated with PBS): 119.59 pg/mL | IL-9 cytokine concentration ([1]; HaCaT stimulated with PBS): 0 pg/mL | IL-10 cytokine concentration ([1]; HaCaT stimulated with PBS): 0 pg/mL | IL-12p70 cytokine concentration ([1]; HaCaT stimulated with PBS): 0 pg/mL | IL-13 cytokine concentration ([1]; HaCaT stimulated with PBS): 1910.22 pg/mL | IL-17 cytokine concentration ([1]; HaCaT stimulated with PBS): 0 pg/mL | IL-22 cytokine concentration ([1]; HaCaT stimulated with PBS): 0 pg/mL | TNF-α cytokine concentration ([1]; HaCaT stimulated with PBS): 21.66 pg/mL | IFN-γ cytokine concentration [1, 8]: 450.42 pg/mL | IL-1 cytokine concentration [1, 8]: 0 pg/mL | IL-2 cytokine concentration [1, 8]: 218.82 pg/mL | IL-4 cytokine concentration [1, 8]: 112.94 pg/mL | IL-5 cytokine concentration [1, 8]: 88.67 pg/mL | IL-6 cytokine concentration [1, 8]: 359.17 pg/mL | IL-9 cytokine concentration [1, 8]: 14.57 pg/mL | IL-10 cytokine concentration [1, 8]: 64.01 pg/mL | IL-12p70 cytokine concentration [1, 8]: 0 pg/mL | IL-13 cytokine concentration [1, 8]: 1877.03 pg/mL | IL-17 cytokine concentration [1, 8]: 209.12 pg/mL | IL-22 cytokine concentration [1, 8]: 0 pg/mL | TNF-α cytokine concentration [1, 8]: 0 pg/mL
